# US20250019652A1, “PRODUCTION METHOD FOR SHEET-LIKE RETINAL TISSUE” (RIKEN, priority 2021, published 2025)
# Tests used:
# Assay type in all cases: cell-based, human
# [1] = test system: retinal cells (NR) dispersed into single cells (KhES-1-derived); assay: Seeding onto Transwell: confirmation of effect of CHIR99021 (Example 9); conditions: CHIR99021 5 μM or 3 μM with Y-27632 (and SAG); Day 14
# Procedure: (§1) The aggregates of Days 15 to 30 from initiation of the suspension culture prepared as in Example 1 were washed with PBS, and a neuronal cell dispersion solution (manufactured by FUJIFILM Wako Pure Chemical Corp.) was added. After incubation at 37° C., they were dispersed into single cells by pipetting.
# When cell sheets obtained on Culture Day 14 for aggregate reforming were observed, it was confirmed that the cells were engrafted under all the conditions (FIG. 29). Accordingly, these cell sheets were fixed in 4% PFA, and frozen sections were prepared. These frozen sections were subjected to immunostaining using DAPI and anti-Zo-1 antibody (trade name: Anti Zo-1 Antibody, manufactured by Invitrogen Corp.) and anti-collagen IV antibody (Abcam plc). These immunostained sections were observed under a confocal laser scanning fluorescence microscope.
# [2] = test system: retinal cells (NR) dispersed into single cells (KhES-1-derived, dd33); assay: Seeding onto Transwell: concentration and addition period of CHIR99021 (Example 10); conditions: 1 μM to 9 μM CHIR99021 for 3 days to 9 days
# Procedure: as §1, with “33 days (dd33) after the start” for “Days 15 to 30 from initiation”, “pipetting. […] 3 days or later from seeding, the medium was replaced once every 3 to 4 days.” for “pipetting.”
# Accordingly, these cell sheets were fixed in 4% PFA, and frozen sections were prepared. These frozen sections were subjected to immunostaining using DAPI.
# [3] = test system: single cells dispersed from KhES-1- and 1231A3-derived aggregates; assay: Aggregate proliferation-promoting factor: aggregate area in suspension culture with Y-27632 (Example 2); conditions: SAG 300 nM or CHIR99021 3 μM in addition to 10 μM Y-27632; Day 1, 7, 14
# Procedure: The aggregates of Day 20 (1231A3) and Day 27 (KhES-1) from initiation of the suspension culture prepared as in Example 1 were washed with PBS, and a neuronal cell dispersion solution (manufactured by FUJIFILM Wako Pure Chemical Corp.) was added. After incubation at 37° C., they were dispersed into single cells by pipetting. These cells were suspended in 100 μL of a serum-free medium containing 10 μM Y-27632 (FUJIFILM Wako Pure Chemical Corp.) so as to become 2 to 5×10^5 cells per well of a non-cell adhesive 96-well culture plate (trade name: PrimeSurface 96-well V-bottom plate, manufactured by Sumitomo Bakelite Co., Ltd.), and suspension-cultured at 37° C. and 5% CO2. […] The reformed states of the aggregates were observed under a bright field microscope and a fluorescence microscope (BZ-X810 manufactured by Keyence Corp.) on Day 1, Day 7, and Day 14 after suspension culture for aggregate reforming. The areas of the aggregates were measured in Image J. The results of the KhES-1-derived cells are shown in FIG. 6 (an average value from 12 […] measured). The results of the 1231A3-derived cells in which the reformed states of the aggregates of Day 1 after suspension culture were observed are shown in FIG. 7.
# [4] = test system: single cell suspension of dispersed retinal cells (KhES-1-derived); assay: Layer structure formation-promoting factor: reformed aggregates, immunostained sections (Example 3); conditions: 3 μM CHIR99021
# Procedure: The aggregates of Day 26 from initiation of the suspension culture prepared as in Example 1 were washed with PBS, and a neuronal cell dispersion solution (manufactured by FUJIFILM Wako Pure Chemical Corp.) was added. After incubation at 37° C., they were dispersed into single cells by pipetting. These cells were suspended in 100 μL of a serum-free medium so as to become 3.0×10^4 cells per well of a non-cell adhesive 96-well culture plate (trade name: PrimeSurface 96-well V-bottom plate, manufactured by Sumitomo Bakelite Co., Ltd.), and suspension-cultured at 37° C. and 5% CO2.
# The aggregates of Day 15 (corresponding to Differentiation Day 41) and Day 28 (corresponding to Differentiation Day 54) after suspension culture for aggregate reforming were fixed in 4% PFA, and frozen sections were prepared. These frozen sections were subjected to immunostaining using DAPI and anti-Chx10 antibody (trade name: Anti CHX10 Antibody, Exalpha Biologicals Inc.), anti-β-catenin antibody (R&D Systems, Inc.), anti-collagen IV antibody (Abcam plc), anti-Zo-1 antibody (Invitrogen Corp.), anti-Ki67 antibody (Becton, Dickinson and Company), anti-Pax6 antibody (BioLegend, Inc.), anti-RxR-γ (RxRg) antibody (Spring Bioscience Corp.), anti-CRX antibody (Abnova Corp.), anti-NRL antibody (R&D Systems, Inc.), anti-recoverin antibody (manufactured by Proteintech Group, Inc.), anti-Islet-1 antibody (Developmental Studies Hybridoma Bank (DSHB)), anti-GS antibody (Sigma-Aldrich Co., LLC), anti-Brn3 antibody (Santa Cruz Biotechnology), and anti-calretinin antibody (R&D Systems, Inc.).
# These immunostained sections were observed under a bright field microscope and a fluorescence microscope (BZ-X810 manufactured by Keyence Corp.) and a confocal laser scanning fluorescence microscope (SP-8 manufactured by Leica), and the results are shown in FIGS. 11 to 20. […] From FIGS. 19 and 20, it was confirmed that RxR-Y(RxRg)-positive and CRX-positive cone progenitor cells and recoverin-positive and CRX-positive photoreceptor progenitor cells were differentiated, and the differentiation of Islet-1-positive and Brn3-positive retinal ganglion cells and calretinin-positive amacrine cells was also confirmed.
smiles,measurement,setting,value
Cc1c[nH]c(-c2cnc(NCCNc3ccc(C#N)cn3)nc2-c2ccc(Cl)cc2Cl)n1 [CHIR99021],apical and basal polarity of sheet,[1],sheets of Rx::Venus-positive retinal progenitor cells having apical and basal polarities were formed again
same,reforming of thick sheets,[2],thick sheets of Rx::Venus-positive retinal progenitor cells were reformed
same,size of reformed aggregates versus only Y-27632,[3],larger aggregates were reformed
same,reforming of aggregates,"[4]; Day 1, Day 14, Day 28",aggregates were reformed
same,"apical-basal polarity (Zo-1, collagen IV)",[4]; Day 15 and Day 28 sections,epithelial tissue having apical and basal polarities was formed
same,"layer structure formation (Rx::Venus, Chx10)",[4]; Day 15 and Day 28 sections,a layer structure where Rx::Venus-positive and Chx10-positive neural retinal progenitor cells were contained was formed
